Test results published in paper PMC5224920, “Assessing the mechanism and therapeutic potential of modulators of the human Mediator complex-associated protein kinases” (eLife, 2016).

Test system: 12 single or co-culture in vitro tissue models of primary cells
Test: Culture/co-culture cell model panel, extracellular biomarkers (DiscoveRx); as to CCL2/MCP-1: reference of the scale not given here; as to CXCL8/IL-8: reference of the scale not given here; as to CXCL9/MIG: reference of the scale not given here; as to IL-1alpha: reference of the scale not given here; as to PBMC Cytotoxicity: reference of the scale not given here; as to SRB: reference of the scale not given here
Assay type: cell-based, human

`Cc1n[nH]c2ncc(C(=O)N3CCC[C@H]3c3ccc(Cl)cc3)cc12` [CMPD4] showed a tPA (BENo, 3.70E2 nM) of -0.062, a uPA (BENo, 3.70E2 nM) of -0.019 and a CCL26/Eotaxin-3 (BENo, 4.12E1 nM) of 0.012. For the same compound, the CD54/ICAM-1 (BENo, 4.12E1 nM) was -0.077, the CD87/uPAR (BENo, 4.12E1 nM) was -0.027 and the CXCL8/IL-8 (BENo, 4.12E1 nM) was 0.020. For the same compound, the CXCL9/MIG (BENo, 4.12E1 nM) was -0.004, the CXCL10/IP-10 (BENo, 4.12E1 nM) was -0.033 and the CXCL11/I-TAC (BENo, 4.12E1 nM) was -0.036. It also gave an EGFR (BENo, 4.12E1 nM) of 0.00426, an HLA-DR (BENo, 4.12E1 nM) of -0.016 and an IL-1alpha (BENo, 4.12E1 nM) of 0.010. The “Keratin 8/18” value (BENo, 4.12E1 nM) was -0.010, the MMP-1 (BENo, 4.12E1 nM) was -0.031 and the MMP-9 (BENo, 4.12E1 nM) was -0.003. The PAI-I (BENo, 4.12E1 nM) was -0.067, the SRB (BENo, 4.12E1 nM) was 0.00253 and the tPA (BENo, 4.12E1 nM) was -0.061. It also gave a uPA (BENo, 4.12E1 nM) of -0.015, a CCL26/Eotaxin-3 (BENo, 4.57E0 nM) of 0.029 and a CD54/ICAM-1 (BENo, 4.57E0 nM) of -0.040. For the same compound, the CD87/uPAR (BENo, 4.57E0 nM) was 0.028, the CXCL8/IL-8 (BENo, 4.57E0 nM) was 0.039 and the CXCL9/MIG (BENo, 4.57E0 nM) was 0.050. For the same compound, the CXCL10/IP-10 (BENo, 4.57E0 nM) was 0.057, the CXCL11/I-TAC (BENo, 4.57E0 nM) was -0.035 and the EGFR (BENo, 4.57E0 nM) was 0.015. The HLA-DR (BENo, 4.57E0 nM) was 0.068, the IL-1alpha (BENo, 4.57E0 nM) was -0.00546 and the “Keratin 8/18” value (BENo, 4.57E0 nM) was -0.020. The MMP-1 (BENo, 4.57E0 nM) was -0.009, the MMP-9 (BENo, 4.57E0 nM) was -0.020 and the PAI-I (BENo, 4.57E0 nM) was -0.00037. For the same compound, the SRB (BENo, 4.57E0 nM) was 0.018, the tPA (BENo, 4.57E0 nM) was 0.003 and the uPA (BENo, 4.57E0 nM) was -0.020. For the same compound, the CCL2/MCP-1 (BF4T, 1.00E4 nM) was -0.010, the CCL26/Eotaxin-3 (BF4T, 1.00E4 nM) was -0.144 and the CD54/ICAM-1 (BF4T, 1.00E4 nM) was -0.092. For the same compound, the CD90 (BF4T, 1.00E4 nM) was -0.00366, the CD106/VCAM-1 (BF4T, 1.00E4 nM) was -0.026 and the CXCL8/IL-8 (BF4T, 1.00E4 nM) was 0.017. The IL-1alpha (BF4T, 1.00E4 nM) was -0.039, the “Keratin 8/18” value (BF4T, 1.00E4 nM) was -0.020 and the MMP-1 (BF4T, 1.00E4 nM) was -0.016. The MMP-3 (BF4T, 1.00E4 nM) was 0.014, the MMP-9 (BF4T, 1.00E4 nM) was -0.031 and the PAI-I (BF4T, 1.00E4 nM) was -0.059. The SRB (BF4T, 1.00E4 nM) was 0.004, the tPA (BF4T, 1.00E4 nM) was -0.022 and the uPA (BF4T, 1.00E4 nM) was -0.009. For the same compound, the CCL2/MCP-1 (BF4T, 1.11E3 nM) was -0.045, the CCL26/Eotaxin-3 (BF4T, 1.11E3 nM) was -0.209 and the CD54/ICAM-1 (BF4T, 1.11E3 nM) was -0.086. For the same compound, the CD90 (BF4T, 1.11E3 nM) was -0.00131, the CD106/VCAM-1 (BF4T, 1.11E3 nM) was -0.021 and the CXCL8/IL-8 (BF4T, 1.11E3 nM) was -0.056. The IL-1alpha (BF4T, 1.11E3 nM) was -0.038, the “Keratin 8/18” value (BF4T, 1.11E3 nM) was 0.020 and the MMP-1 (BF4T, 1.11E3 nM) was -0.016. It also gave an MMP-3 (BF4T, 1.11E3 nM) of -0.0065, an MMP-9 (BF4T, 1.11E3 nM) of -0.011 and a PAI-I (BF4T, 1.11E3 nM) of -0.00269. For the same compound, the SRB (BF4T, 1.11E3 nM) was 0.011, the tPA (BF4T, 1.11E3 nM) was 0.007 and the uPA (BF4T, 1.11E3 nM) was -0.016. The CCL2/MCP-1 (BF4T, 1.23E2 nM) was -0.067, the CCL26/Eotaxin-3 (BF4T, 1.23E2 nM) was -0.191 and the CD54/ICAM-1 (BF4T, 1.23E2 nM) was -0.058. The CD90 (BF4T, 1.23E2 nM) was -0.00126, the CD106/VCAM-1 (BF4T, 1.23E2 nM) was -0.012 and the CXCL8/IL-8 (BF4T, 1.23E2 nM) was -0.021. For the same compound, the IL-1alpha (BF4T, 1.23E2 nM) was -0.020, the “Keratin 8/18” value (BF4T, 1.23E2 nM) was -0.022 and the MMP-1 (BF4T, 1.23E2 nM) was 0.00135. The MMP-3 (BF4T, 1.23E2 nM) was -0.007, the MMP-9 (BF4T, 1.23E2 nM) was -0.047 and the PAI-I (BF4T, 1.23E2 nM) was -0.013. The SRB (BF4T, 1.23E2 nM) was 0.00469, the tPA (BF4T, 1.23E2 nM) was 0.032 and the uPA (BF4T, 1.23E2 nM) was 0.00319. For the same compound, the CCL2/MCP-1 (BF4T, 1.37E1 nM) was 0.00746, the CCL26/Eotaxin-3 (BF4T, 1.37E1 nM) was -0.134 and the CD54/ICAM-1 (BF4T, 1.37E1 nM) was -0.057. It also gave a CD90 (BF4T, 1.37E1 nM) of -0.011, a CD106/VCAM-1 (BF4T, 1.37E1 nM) of -0.028 and a CXCL8/IL-8 (BF4T, 1.37E1 nM) of -0.024. For the same compound, the IL-1alpha (BF4T, 1.37E1 nM) was -0.024, the “Keratin 8/18” value (BF4T, 1.37E1 nM) was -0.00271 and the MMP-1 (BF4T, 1.37E1 nM) was -0.015. The MMP-3 (BF4T, 1.37E1 nM) was 0.049, the MMP-9 (BF4T, 1.37E1 nM) was -0.026 and the PAI-I (BF4T, 1.37E1 nM) was -0.020. The SRB (BF4T, 1.37E1 nM) was 0.005, the tPA (BF4T, 1.37E1 nM) was 0.049 and the uPA (BF4T, 1.37E1 nM) was 0.009. The CCL2/MCP-1 (BF4T, 3.33E3 nM) was -0.061, the CCL26/Eotaxin-3 (BF4T, 3.33E3 nM) was -0.184 and the CD54/ICAM-1 (BF4T, 3.33E3 nM) was -0.074. The CD90 (BF4T, 3.33E3 nM) was 0.011, the CD106/VCAM-1 (BF4T, 3.33E3 nM) was 0.002 and the CXCL8/IL-8 (BF4T, 3.33E3 nM) was -0.042. For the same compound, the IL-1alpha (BF4T, 3.33E3 nM) was -0.055, the “Keratin 8/18” value (BF4T, 3.33E3 nM) was -0.022 and the MMP-1 (BF4T, 3.33E3 nM) was -0.012. The MMP-3 (BF4T, 3.33E3 nM) was -0.048, the MMP-9 (BF4T, 3.33E3 nM) was -0.00425 and the PAI-I (BF4T, 3.33E3 nM) was -0.026. The SRB (BF4T, 3.33E3 nM) was 0.006, the tPA (BF4T, 3.33E3 nM) was 0.015 and the uPA (BF4T, 3.33E3 nM) was -0.019. For the same compound, the CCL2/MCP-1 (BF4T, 3.70E2 nM) was -0.039, the CCL26/Eotaxin-3 (BF4T, 3.70E2 nM) was -0.177 and the CD54/ICAM-1 (BF4T, 3.70E2 nM) was -0.076. The CD90 (BF4T, 3.70E2 nM) was -0.00567, the CD106/VCAM-1 (BF4T, 3.70E2 nM) was -0.004 and the CXCL8/IL-8 (BF4T, 3.70E2 nM) was -0.042. The IL-1alpha (BF4T, 3.70E2 nM) was -0.090, the “Keratin 8/18” value (BF4T, 3.70E2 nM) was -0.012 and the MMP-1 (BF4T, 3.70E2 nM) was -0.008. The MMP-3 (BF4T, 3.70E2 nM) was 0.015, the MMP-9 (BF4T, 3.70E2 nM) was -0.018 and the PAI-I (BF4T, 3.70E2 nM) was 0.003. It also gave an SRB (BF4T, 3.70E2 nM) of 3.34e-5, a tPA (BF4T, 3.70E2 nM) of 0.027 and a uPA (BF4T, 3.70E2 nM) of -0.022. It also gave a CCL2/MCP-1 (BF4T, 4.12E1 nM) of -0.019, a CCL26/Eotaxin-3 (BF4T, 4.12E1 nM) of -0.203 and a CD54/ICAM-1 (BF4T, 4.12E1 nM) of -0.044. The CD90 (BF4T, 4.12E1 nM) was 0.0044, the CD106/VCAM-1 (BF4T, 4.12E1 nM) was -0.036 and the CXCL8/IL-8 (BF4T, 4.12E1 nM) was -0.031. For the same compound, the IL-1alpha (BF4T, 4.12E1 nM) was -0.038, the “Keratin 8/18” value (BF4T, 4.12E1 nM) was 0.00849 and the MMP-1 (BF4T, 4.12E1 nM) was -0.002. The MMP-3 (BF4T, 4.12E1 nM) was 0.027, the MMP-9 (BF4T, 4.12E1 nM) was -0.011 and the PAI-I (BF4T, 4.12E1 nM) was -0.009. It also gave an SRB (BF4T, 4.12E1 nM) of 0.000731, a tPA (BF4T, 4.12E1 nM) of 0.025 and a uPA (BF4T, 4.12E1 nM) of -0.00027. The CCL2/MCP-1 (BF4T, 4.57E0 nM) was 0.041, the CCL26/Eotaxin-3 (BF4T, 4.57E0 nM) was -0.086 and the CD54/ICAM-1 (BF4T, 4.57E0 nM) was -0.034. For the same compound, the CD90 (BF4T, 4.57E0 nM) was -0.000153, the CD106/VCAM-1 (BF4T, 4.57E0 nM) was -0.018 and the CXCL8/IL-8 (BF4T, 4.57E0 nM) was 0.024. The IL-1alpha (BF4T, 4.57E0 nM) was -0.020, the “Keratin 8/18” value (BF4T, 4.57E0 nM) was -0.00266 and the MMP-1 (BF4T, 4.57E0 nM) was 0.000794. The MMP-3 (BF4T, 4.57E0 nM) was 0.054, the MMP-9 (BF4T, 4.57E0 nM) was -0.023 and the PAI-I (BF4T, 4.57E0 nM) was 0.019. For the same compound, the SRB (BF4T, 4.57E0 nM) was -0.008, the tPA (BF4T, 4.57E0 nM) was 0.057 and the uPA (BF4T, 4.57E0 nM) was -0.00538. For the same compound, the “B cell Proliferation” value (BT, 1.00E4 nM) was -0.013, the “PBMC Cytotoxicity” value (BT, 1.00E4 nM) was -0.020 and the “Secreted IgG” value (BT, 1.00E4 nM) was -0.332. For the same compound, the sIL-2 (BT, 1.00E4 nM) was 0.00561, the sIL-6 (BT, 1.00E4 nM) was -0.027 and the sIL-17A (BT, 1.00E4 nM) was 0.321. It also gave a sIL-17F (BT, 1.00E4 nM) of -0.397.
